Laboratory results taken from ChEMBL document CHEMBL5291721, “A preclinical secondary pharmacology resource illuminates target-adverse drug reaction associations of marketed drugs” (Nat Commun, 2023).

Legend:
Adenosine receptor A1 = biological target: T1, Adenosine receptor A1 (Homo sapiens, UniProt P30542)
T1 sequence (P30542 whole entry): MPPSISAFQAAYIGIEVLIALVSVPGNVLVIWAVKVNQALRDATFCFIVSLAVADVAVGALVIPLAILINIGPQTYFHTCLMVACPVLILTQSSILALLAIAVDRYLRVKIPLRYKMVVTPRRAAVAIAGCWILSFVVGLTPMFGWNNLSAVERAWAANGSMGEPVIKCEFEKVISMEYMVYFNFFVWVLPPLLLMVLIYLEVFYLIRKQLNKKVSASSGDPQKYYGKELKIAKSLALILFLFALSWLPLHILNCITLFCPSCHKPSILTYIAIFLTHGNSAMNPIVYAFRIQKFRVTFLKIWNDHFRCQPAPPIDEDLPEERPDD

[1] = biological target: T2, Alpha-2A adrenergic receptor (Homo sapiens, UniProt P08913); assay type: functional, cell-based
T2 sequence (P08913 whole entry): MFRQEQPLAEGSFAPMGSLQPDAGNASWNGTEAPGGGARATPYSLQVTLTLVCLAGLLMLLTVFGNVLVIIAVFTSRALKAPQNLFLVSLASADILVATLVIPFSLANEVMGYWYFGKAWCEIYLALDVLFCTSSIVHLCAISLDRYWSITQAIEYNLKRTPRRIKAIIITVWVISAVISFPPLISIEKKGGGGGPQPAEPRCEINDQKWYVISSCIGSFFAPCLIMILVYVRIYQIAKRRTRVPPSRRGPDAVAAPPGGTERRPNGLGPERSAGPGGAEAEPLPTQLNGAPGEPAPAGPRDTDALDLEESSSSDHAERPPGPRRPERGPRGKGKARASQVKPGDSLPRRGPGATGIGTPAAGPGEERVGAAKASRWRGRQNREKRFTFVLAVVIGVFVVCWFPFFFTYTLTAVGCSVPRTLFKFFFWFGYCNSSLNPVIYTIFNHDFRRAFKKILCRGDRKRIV

[2] = biological target: T3, Alpha-2C adrenergic receptor (Homo sapiens, UniProt P18825); assay type: functional
T3 sequence (P18825 whole entry): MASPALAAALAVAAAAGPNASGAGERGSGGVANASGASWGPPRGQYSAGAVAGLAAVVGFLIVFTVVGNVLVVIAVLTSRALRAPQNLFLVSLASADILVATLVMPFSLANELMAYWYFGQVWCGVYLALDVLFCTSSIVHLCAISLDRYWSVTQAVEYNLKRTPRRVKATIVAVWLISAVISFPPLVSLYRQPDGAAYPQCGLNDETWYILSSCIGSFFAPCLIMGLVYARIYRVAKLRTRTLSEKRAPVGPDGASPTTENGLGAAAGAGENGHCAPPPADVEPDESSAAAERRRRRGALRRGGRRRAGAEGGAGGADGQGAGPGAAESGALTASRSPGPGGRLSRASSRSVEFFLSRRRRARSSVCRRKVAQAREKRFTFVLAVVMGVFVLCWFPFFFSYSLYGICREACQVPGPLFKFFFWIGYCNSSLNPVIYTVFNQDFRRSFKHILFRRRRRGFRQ

[3] = biological target: 5-hydroxytryptamine receptor 2B (Homo sapiens, UniProt P41595); assay type: functional, cell-based
5-hydroxytryptamine receptor 2B, sequence (P41595 whole entry): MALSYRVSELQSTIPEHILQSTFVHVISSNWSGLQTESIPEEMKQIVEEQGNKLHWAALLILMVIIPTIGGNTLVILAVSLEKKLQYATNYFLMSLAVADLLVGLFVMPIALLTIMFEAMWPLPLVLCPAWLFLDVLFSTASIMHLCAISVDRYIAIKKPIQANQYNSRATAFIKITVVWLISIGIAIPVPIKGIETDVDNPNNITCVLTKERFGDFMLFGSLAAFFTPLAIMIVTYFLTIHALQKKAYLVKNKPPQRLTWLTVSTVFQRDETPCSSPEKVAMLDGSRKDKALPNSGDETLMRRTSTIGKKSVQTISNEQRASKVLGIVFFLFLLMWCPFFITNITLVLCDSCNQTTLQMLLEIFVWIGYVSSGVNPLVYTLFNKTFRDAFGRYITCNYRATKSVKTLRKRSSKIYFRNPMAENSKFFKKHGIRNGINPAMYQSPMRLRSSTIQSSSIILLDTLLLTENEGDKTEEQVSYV

Progesterone receptor = biological target: T4, Progesterone receptor (Homo sapiens, UniProt P06401); assay type: functional
T4 sequence (P06401 whole entry): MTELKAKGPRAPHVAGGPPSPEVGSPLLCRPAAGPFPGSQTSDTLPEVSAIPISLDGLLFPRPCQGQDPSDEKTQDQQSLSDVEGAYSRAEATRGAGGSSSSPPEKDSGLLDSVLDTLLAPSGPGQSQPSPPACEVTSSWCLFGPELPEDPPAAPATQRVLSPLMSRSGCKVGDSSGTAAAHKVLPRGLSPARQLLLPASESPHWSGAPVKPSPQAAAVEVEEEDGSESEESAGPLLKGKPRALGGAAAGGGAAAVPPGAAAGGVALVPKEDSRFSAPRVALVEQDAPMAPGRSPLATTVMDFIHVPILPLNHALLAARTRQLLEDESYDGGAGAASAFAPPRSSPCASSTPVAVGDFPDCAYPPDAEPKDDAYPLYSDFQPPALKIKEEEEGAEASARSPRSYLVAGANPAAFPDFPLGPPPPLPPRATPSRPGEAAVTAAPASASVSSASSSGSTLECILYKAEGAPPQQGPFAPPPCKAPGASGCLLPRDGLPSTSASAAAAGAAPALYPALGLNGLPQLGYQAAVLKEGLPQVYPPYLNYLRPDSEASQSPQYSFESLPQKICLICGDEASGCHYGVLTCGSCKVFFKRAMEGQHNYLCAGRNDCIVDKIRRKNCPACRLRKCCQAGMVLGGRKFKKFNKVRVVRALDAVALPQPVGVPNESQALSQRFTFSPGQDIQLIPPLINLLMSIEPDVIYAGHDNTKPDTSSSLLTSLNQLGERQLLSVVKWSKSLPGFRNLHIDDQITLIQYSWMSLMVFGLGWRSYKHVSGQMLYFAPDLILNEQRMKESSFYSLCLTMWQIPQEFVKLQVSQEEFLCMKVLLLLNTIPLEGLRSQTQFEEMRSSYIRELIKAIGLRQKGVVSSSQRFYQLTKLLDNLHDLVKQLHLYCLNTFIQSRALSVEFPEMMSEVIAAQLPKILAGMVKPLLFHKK

[4] = biological target: T5, Prostaglandin G/H synthase 1 (Rattus norvegicus, UniProt Q63921); assay type: functional
T5 sequence (Q63921 whole entry): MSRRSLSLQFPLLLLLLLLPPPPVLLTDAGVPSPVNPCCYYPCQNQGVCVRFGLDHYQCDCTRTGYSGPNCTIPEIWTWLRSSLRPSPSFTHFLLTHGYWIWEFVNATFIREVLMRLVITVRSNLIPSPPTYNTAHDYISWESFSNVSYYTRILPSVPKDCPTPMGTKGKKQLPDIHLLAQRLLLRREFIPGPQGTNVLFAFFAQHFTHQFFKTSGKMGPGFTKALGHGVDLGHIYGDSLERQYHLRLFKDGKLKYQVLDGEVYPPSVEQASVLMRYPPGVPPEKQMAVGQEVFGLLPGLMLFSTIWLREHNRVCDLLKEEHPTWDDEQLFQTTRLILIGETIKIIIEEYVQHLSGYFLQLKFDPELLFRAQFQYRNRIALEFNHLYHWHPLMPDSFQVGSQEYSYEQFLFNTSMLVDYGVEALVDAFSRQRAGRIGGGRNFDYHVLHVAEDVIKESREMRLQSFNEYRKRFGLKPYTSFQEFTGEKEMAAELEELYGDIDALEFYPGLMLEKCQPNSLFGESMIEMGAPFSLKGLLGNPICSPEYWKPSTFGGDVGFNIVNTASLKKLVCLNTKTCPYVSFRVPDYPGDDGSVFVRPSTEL
Further: assay procedure not described here.

Row | SMILES | AC50 (Adenosine receptor A1) [µM] | AC50 [1] [µM] | AC50 [2] [µM] | AC50 [3] [µM] | AC50 (Progesterone receptor) [µM] | AC50 [4] [µM]
1 | N=C(N)NC(=O)c1nc(Cl)c(N)nc1N [AMILORIDE] | > 30 | > 30 | > 30 | > 30 | > 30 | > 30
2 | CC(C)(C)NCC(O)COc1ccccc1C#N (configuration not stated) [BUNITROLOL] | – | > 30 | > 30 | 21 | – | –
3 | COc1cccc2c1C(=O)c1c(O)c3c(c(O)c1C2=O)C[C@@](O)(C(=O)CO)C[C@@H]3O[C@H]1C[C@H](N)[C@H](O)[C@H](C)O1 [DOXORUBICIN] | > 30 | 12 | > 30 | 15 | > 30 | > 30
4 | CCn1c(=O)c2c(nc(/C=C/c3ccc(OC)c(OC)c3)n2C)n(CC)c1=O [ISTRADEFYLLINE] | 23 | – | > 30 | – | > 30 | > 30
5 | COc1ccc(C(=O)c2ccccc2)c(O)c1 [OXYBENZONE] | – | > 30 | > 30 | > 30 | – | –
6 | CN1C(C(=O)Nc2ccccn2)=C(OC(=O)/C=C/c2ccccc2)c2ccccc2S1(=O)=O [PIROXICAM CINNAMATE] | – | – | – | – | – | > 300
7 | Cc1cn(-c2cc(NC(=O)c3ccc(C)c(Nc4nccc(-c5cnccn5)n4)c3)cc(C(F)(F)F)c2)cn1 [RADOTINIB] | – | – | > 30 | – | > 30 | > 30
8 | Cc1ccc(O)c([C@H](CCN(C(C)C)C(C)C)c2ccccc2)c1 [TOLTERODINE] | – | > 10 | > 10 | > 10 | – | –
9 | Oc1cc(Cl)ccc1Oc1ccc(Cl)cc1Cl [TRICLOSAN] | > 30 | > 30 | > 30 | > 30 | > 30 | > 30

Other lines, results leading:

Row | AC50 (Adenosine receptor A1) [µM] | AC50 [1] [µM] | AC50 [2] [µM] | AC50 [3] [µM] | AC50 (Progesterone receptor) [µM] | AC50 [4] [µM] | SMILES
10 | 5.9 | > 30 | > 30 | > 30 | 15 | > 30 | COc1ccc(-c2cc(=S)ss2)cc1 [ANETHOLTRITHION]
11 | > 30 | > 30 | > 30 | > 30 | 0.2 | > 30 | C[C@]12CCC(=O)C=C1C=C[C@@H]1[C@@H]2CC[C@@]2(C)[C@H]1CC[C@@]21CCC(=O)O1 [CANRENONE]
12 | > 10 | > 10 | > 10 | > 10 | > 10 | > 10 | CN(C)CCC(O)(c1ccccc1)c1ccccc1Cl (configuration not stated) [CHLOPHEDIANOL]
13 | > 30 | > 30 | > 30 | > 30 | 2.1 | > 30 | C[C@]12C=CC(=O)C=C1C(Cl)=C[C@@H]1[C@@H]2[C@@H](O)C[C@@]2(C)[C@H]1CC[C@]2(O)C(=O)CO [CLOPREDNOL]
14 | > 30 | > 30 | > 30 | – | – | > 30 | C[C@]12CCC(=O)C=C1[C@@H]1C[C@@H]1[C@H]1[C@@H]3[C@@H]4C[C@@H]4[C@@]4(CCC(=O)O4)[C@@]3(C)CC[C@@H]12 [DROSPIRENONE]
15 | > 30 | > 30 | > 30 | > 30 | > 30 | > 30 | CC(C)(Oc1ccc(Cl)cc1)C(=O)OCCOC(=O)c1cccnc1 [ETOFIBRATE]
16 | > 30 | > 10 | > 10 | > 10 | – | > 30 | C[C@]12C=CC(=O)C=C1CC[C@@H]1[C@@H]2[C@@H](O)C[C@@]2(C)[C@H]1CC[C@]2(O)C(=O)CO [PREDNISOLONE]
17 | > 10 | > 10 | 4.5 | 0.23 | > 30 | > 10 | CCC(=O)c1ccc2c(c1)N(CC(C)N(C)C)c1ccccc1S2 (configuration not stated) [PROPIOMAZINE]
18 | > 10 | > 10 | > 10 | > 10 | > 30 | 0.653 | CN(C)[C@@H]1C(O)=C(C(=O)NCN2CCCC2)C(=O)[C@@]2(O)C(O)=C3C(=O)c4c(O)cccc4[C@@](C)(O)[C@H]3C[C@@H]12 [ROLITETRACYCLINE]
19 | > 30 | > 30 | > 30 | > 30 | 0.02 | > 30 | CC1(C)O[C@@H]2C[C@H]3[C@@H]4CCC5=CC(=O)C=C[C@]5(C)[C@@]4(F)[C@@H](O)C[C@]3(C)[C@]2(C(=O)CO)O1 [TRIAMCINOLONE ACETONIDE]
